Measurements as given in the supplement of paper PMC10307832.

These cell lines were tested with O=c1ncccn1[C@@H]1O[C@H](CO)[C@@H](O)[C@H]1O [Zebularine] + CC(=O)Nc1cccc(-n2c(=O)n(C3CC3)c(=O)c3c(Nc4ccc(I)cc4F)n(C)c(=O)c(C)c32)c1 [Trametinib] (partner 0.02 µM) (assay: relative viability (nuclei count vs DMSO), 5 days (fraction); higher = more cells survive). Settings: first compound 1 µM.
Method in brief: (§1)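 Lung cancer cell lines were pin-tool dosed in 1536-well plates on the day after seeding, with either a lone drug or a fixed anchor-drug dose plus five library-drug doses (not always all listed) in √10 steps. Nuclei were counted on 4× images after 5 days. Relative viability is the ratio of treated-well to vehicle-well nuclei counts, with each value a median of duplicate plates.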

Row | Cell Line | relative viability
1 | NCI-H2228 | 0.612
2 | NCI-H1792 | 0.472
3 | NCI-H1355 | 0.449
4 | NCI-H3122 | 0.268
5 | NCI-H1437 | 0.545
6 | NCI-H1755 | 0.885
7 | NCI-H2023 | 0.595
8 | HCC-15 | 0.375
9 | NCI-H1793 | 0.466
10 | PC-14 | 0.7
11 | EKVX | 0.51
12 | LC-2-ad | 0.957
13 | NCI-H1944 | 0.481
14 | NCI-H1975 | 0.298
15 | RERF-LC-KJ | 1.02
16 | NCI-H358 | 0.146
17 | NCI-H650 | 0.895
18 | PC-3 [JPC-3] | 0.779

Same assay, conditions: first compound 3.162 µM

Row | Cell Line | relative viability
19 | NCI-H2228 | 0.251
20 | NCI-H1792 | 0.351
21 | NCI-H1355 | 0.45
22 | NCI-H3122 | 0.294
23 | NCI-H1437 | 0.532
24 | NCI-H1755 | 0.766
25 | NCI-H2023 | 0.636
26 | HCC-15 | 0.377
27 | NCI-H1793 | 0.477
28 | PC-14 | 0.517
29 | EKVX | 0.328
30 | LC-2-ad | 0.979
31 | NCI-H1944 | 0.411
32 | NCI-H1975 | 0.268
33 | RERF-LC-KJ | 0.89
34 | NCI-H358 | 0.134
35 | NCI-H650 | 0.97
36 | PC-3 [JPC-3] | 0.696

Same assay, conditions: first compound 10 µM

Row | Cell Line | relative viability
37 | NCI-H1792 | 0.187
38 | NCI-H1355 | 0.468
39 | NCI-H3122 | 0.22
40 | NCI-H1437 | 0.419
41 | NCI-H1755 | 0.726
42 | NCI-H2023 | 0.367
43 | HCC-15 | 0.395
44 | NCI-H1793 | 0.257
45 | PC-14 | 0.197
46 | LC-2-ad | 0.657
47 | NCI-H1944 | 0.45
48 | NCI-H1975 | 0.338
49 | RERF-LC-KJ | 0.719
50 | NCI-H358 | 0.117
51 | NCI-H650 | 0.826
52 | PC-3 [JPC-3] | 0.622

Same assay, conditions: first compound 31.62 µM

Row | Cell Line | relative viability
53 | NCI-H2228 | 0.417
54 | NCI-H1792 | 0.176
55 | NCI-H1355 | 0.383
56 | NCI-H3122 | 0.283
57 | NCI-H1437 | 0.619
58 | NCI-H1755 | 0.761
59 | NCI-H2023 | 0.523
60 | HCC-15 | 0.392
61 | NCI-H1793 | 0.269
62 | PC-14 | 0.117
63 | EKVX | 0.294
64 | LC-2-ad | 0.777
65 | NCI-H1944 | 0.498
66 | NCI-H1975 | 0.283
67 | RERF-LC-KJ | 0.87
68 | NCI-H358 | 0.145
69 | NCI-H650 | 0.471
70 | PC-3 [JPC-3] | 0.71

Same assay, conditions: first compound 100 µM

Row | Cell Line | relative viability
71 | NCI-H2228 | 0.252
72 | NCI-H1792 | 0.182
73 | NCI-H1355 | 0.335
74 | NCI-H3122 | 0.251
75 | NCI-H1437 | 0.661
76 | NCI-H1755 | 0.61
77 | NCI-H2023 | 0.308
78 | HCC-15 | 0.298
79 | NCI-H1793 | 0.21
80 | PC-14 | 0.101
81 | EKVX | 0.321
82 | LC-2-ad | 0.356
83 | NCI-H1944 | 0.419
84 | NCI-H1975 | 0.222
85 | RERF-LC-KJ | 0.916
86 | NCI-H358 | 0.113
87 | NCI-H650 | 0.262
88 | PC-3 [JPC-3] | 0.539

The cell lines below were run with CC(C)CCN1c2nc(Nc3cc(F)c(O)c(F)c3)ncc2N(C)C(=O)C1C [BI-D1870] + Cc1nc(NC(=O)N2CCC[C@H]2C(N)=O)sc1-c1ccnc(C(C)(C)C(F)(F)F)c1 [Alpelisib] (partner 2 µM) in the same assay as above. Settings: first compound 0.04 µM.
Method in brief: as §1

Row | Cell Line | relative viability
89 | NCI-H2228 | 0.669
90 | NCI-H1792 | 0.724
91 | NCI-H1355 | 0.848
92 | NCI-H3122 | 0.721
93 | NCI-H1437 | 1.1
94 | NCI-H1755 | 0.973
95 | NCI-H2023 | 0.696
96 | HCC-15 | 0.907
97 | NCI-H1793 | 0.647
98 | PC-14 | 1.15
99 | EKVX | 0.957
100 | LC-2-ad | 0.962
101 | NCI-H1944 | 0.907
102 | NCI-H1975 | 0.646
103 | RERF-LC-KJ | 0.835
104 | NCI-H358 | 0.964
105 | NCI-H650 | 1.16
106 | PC-3 [JPC-3] | 1.07

Same assay, conditions: first compound 0.1265 µM

Row | Cell Line | relative viability
107 | NCI-H2228 | 0.568
108 | NCI-H1792 | 0.677
109 | NCI-H1355 | 0.768
110 | NCI-H3122 | 0.643
111 | NCI-H1437 | 0.964
112 | NCI-H1755 | 0.852
113 | NCI-H2023 | 0.552
114 | HCC-15 | 0.812
115 | NCI-H1793 | 0.607
116 | PC-14 | 0.882
117 | EKVX | 0.759
118 | LC-2-ad | 0.836
119 | NCI-H1944 | 0.803
120 | NCI-H1975 | 0.572
121 | RERF-LC-KJ | 0.76
122 | NCI-H358 | 0.745
123 | NCI-H650 | 0.944
124 | PC-3 [JPC-3] | 0.971

Same assay, conditions: first compound 0.4 µM

Row | Cell Line | relative viability
125 | NCI-H2228 | 0.876
126 | NCI-H1792 | 0.641
127 | NCI-H1355 | 0.804
128 | NCI-H3122 | 0.724
129 | NCI-H1437 | 0.911
130 | NCI-H1755 | 0.983
131 | NCI-H2023 | 0.592
132 | HCC-15 | 0.882
133 | NCI-H1793 | 0.537
134 | PC-14 | 0.913
135 | EKVX | 0.85
136 | LC-2-ad | 0.849
137 | NCI-H1944 | 0.817
138 | NCI-H1975 | 0.518
139 | RERF-LC-KJ | 0.761
140 | NCI-H358 | 0.852
141 | NCI-H650 | 1.14
142 | PC-3 [JPC-3] | 1.03

Same assay, conditions: first compound 1.265 µM

Row | Cell Line | relative viability
143 | NCI-H2228 | 0.602
144 | NCI-H1792 | 0.736
145 | NCI-H1355 | 0.884
146 | NCI-H3122 | 0.852
147 | NCI-H1437 | 0.993
148 | NCI-H1755 | 0.968
149 | NCI-H2023 | 0.634
150 | HCC-15 | 0.861
151 | NCI-H1793 | 0.69
152 | PC-14 | 0.837
153 | EKVX | 0.898
154 | LC-2-ad | 0.855
155 | NCI-H1944 | 0.927
156 | NCI-H1975 | 0.55
157 | RERF-LC-KJ | 0.688
158 | NCI-H358 | 0.663
159 | NCI-H650 | 0.97
160 | PC-3 [JPC-3] | 1.13

Same assay, conditions: first compound 4 µM

Row | Cell Line | relative viability
161 | NCI-H2228 | 0.35
162 | NCI-H1792 | 0.538
163 | NCI-H1355 | 0.716
164 | NCI-H3122 | 0.749
165 | NCI-H1437 | 0.754
166 | NCI-H1755 | 0.869
167 | NCI-H2023 | 0.552
168 | HCC-15 | 0.646
169 | NCI-H1793 | 0.719
170 | PC-14 | 0.862
171 | EKVX | 0.664
172 | LC-2-ad | 0.701
173 | NCI-H1944 | 0.861
174 | NCI-H1975 | 0.34
175 | RERF-LC-KJ | 0.689
176 | NCI-H358 | 0.415
